Measured values reported in patent US20060241101A1, “Novel benzimidazole derivatives and pharmaceutical compositions comprising these compounds” (priority 2003, published 2006).
Counter-ions that a name gives are not always drawn.

| Compound | melting point [°C] |
| --- | --- |
| CCCCOC(=O)c1ccc2c(c1)ncn2-c1cccc(N2CCN(CCOCC)CC2)c1 (as salt: HCl) [Compound 1c, n-Butyl 1-(3-(4-(ethoxyethyl)-1-piperazinyl)-phenyl)-benzimidazole-5-carboxylate] | 92 to 95 |
| CCOCCN1CCN(c2cccc(-n3cnc4cc(C(=O)OCC(C)C)ccc43)c2)CC1 (as salt: HCl) [Compound 1d, iso-Butyl 1-(3-(4-(ethoxyethyl)-1-piperazinyl)-phenyl)-benzimidazole-5-carboxylate] | 154 to 160 |
| COCCOC(=O)c1ccc2c(c1)ncn2-c1cccc(N2CCN(CCOC)CC2)c1 (as salt: HCl) [Compound 1e, 2-Methoxyethyl 1-(3-(4-(methoxyethyl)-1-piperazinyl)-phenyl)-benzimidazole-5-carboxylate] | 173 to 178 |
| COCCN1CCN(c2cccc(-n3cnc4cc(C(=O)OCCO)ccc43)c2)CC1 (as salt: HCl) [Compound 1f, 2-Hydroxyethyl 1-(3-(4-(methoxyethyl)-1-piperazinyl)-phenyl)-benzimidazole-5-carboxylate] | 159 to 162 |
| CCCCOC(=O)c1ccc2c(c1)ncn2-c1cccc(N2CCN(CCOC)CC2)c1 (as salt: HCl) [Compound 1g, n-Butyl 1-(3-(4-(methoxyethyl)-1-piperazinyl)-phenyl)-benzimidazole-5-carboxylate] | 148 to 152 |
